According to article PMC9960827, “Cloning and Characterization of Trypanosoma congolense and T. vivax Nucleoside Transporters Reveal the Potential of P1-Type Carriers for the Discovery of Broad-Spectrum Nucleoside-Based Therapeutics against Animal African Trypanosomiasis” (International Journal of Molecular Sciences, 2023):
Where two headings read alike, the source gives them in different places. Marks after values point to notes of the source that are not given here.

Columns and labels:
[1] = system: T. congolense 6C3; experiment: microbe, parasite or virus in culture; assay type: cell-based, Trypanosoma congolense; details: for EC50: diminazene resistant strain, resazurin, read-out: T. congolense 6C3 EC50; for T. congolense 6C3 RF: resistance factor = EC50 (test strain)/EC50(control strain)
Protocol: (§1) EC50 values were determined by plotting to an equation for a sigmoid curve with variable slope (GraphPad Prism 8). All values were the average of at least three independent determinations on different days.

[2] = system: T. vivax; parameters: method as in Mabille et al. [69]; details: added for comparison only; ref Mabille et al. [69]; cited from earlier work
[3] = system: T. equiperdum; experiment: Alamar Blue (resazurin) assay, T. equiperdum; assay type: cell-based, Trypanosoma equiperdum; details: resazurin; read-out: T. equiperdum EC50
Protocol: as §1

[4] = system: L. mexicana SUPKO+TcoAT1; experiment: microbe, parasite or virus in culture; assay type: cell-based, Leishmania mexicana; details: for SUPKO+TcoAT1 RF (SUPKO): Resistance Factor relative to SUPKO; for EC50: resazurin, promastigotes, read-out: SUPKO+TcoAT1 EC50
Protocol: as §1

[5] = system: L. mexicana SUPKO+TvxNT3; experiment: microbe, parasite or virus in culture; assay type: cell-based, Leishmania mexicana; details: for SUPKO+TvxNT3 RF (SUPKO): Resistance Factor relative to SUPKO; for EC50: resazurin, promastigotes, read-out: SUPKO+TvxNT3 EC50
Protocol: as §1

[6] = system: L. mexicana SUPKO; experiment: microbe, parasite or virus in culture; assay type: cell-based, Leishmania mexicana; details: for SUPKO RF (Cas9): Resistance Factor = EC50(SUPKO)/EC50(Cas9); for EC50: resazurin, promastigotes, read-out: SUPKO EC50
Protocol: as §1

[7] = system: L. mexicana Cas9; experiment: Resazurin drug sensitivity assay, LmexCas9; assay type: cell-based, Leishmania mexicana; details: resazurin, promastigotes; read-out: LmexCas9 EC50
Protocol: as §1

[8] = system: T. evansi; experiment: Alamar Blue (resazurin) assay, T. evansi; assay type: cell-based, Trypanosoma evansi; details: resazurin; read-out: T. evansi EC50
Protocol: as §1

[9] = system: T. congolense IL3000; experiment: Alamar Blue (resazurin) assay, T. congolense IL3000; assay type: cell-based, Trypanosoma congolense; details: BSF, resazurin; read-out: T. congolense IL3000 EC50
Protocol: as §1

[10] = system: T.b.b. B48; experiment: Alamar Blue (resazurin) assay, T. b. brucei B48; assay type: cell-based, Trypanosoma brucei brucei; details: multidrug-resistant strain, resazurin; read-out: T.b.b. B48 EC50
Protocol: as §1

[11] = system: human embryonic kidney (HEK) cells; experiment: Resazurin toxicity assay on human embryonic kidney cells; assay type: cell-based; details: for SI T. congolense: selectivity index = EC50 (HEK cells)/EC50 (T. congolense); for SI T. equiperdum: selectivity index = EC50 (HEK cells)/EC50 (T. equiperdum); for SI T. evansi: selectivity index = EC50 (HEK cells)/EC50 (T. evansi)
Protocol: as §1

[12] = target: T. congolense adenosine transporter; experiment: [3H]-adenosine uptake and its inhibition in T. congolense IL3000 bloodstream forms; assay type: cell-based, Trypanosoma congolense; details: for Ki: 0.05 µM [3H]-adenosine, 30 s, IC50 converted to Ki, read-out: Ki on the transport of [3H]-adenosine; for ΔG0, Gibbs free energy of interaction: calculated from Km or Ki
Protocol: (§2) Uptake assays using radiolabeled trypanocides and/or nucleosides were carried out as described previously. Briefly, parasite cultures were harvested, washed twice in assay buffer (33 mM HEPES, 98 mM NaCl, 4.6 mM KCl, 0.5 mM CaCl2, 0.07 mM MgSO4, 5.8 mM NaH3PO4, 0.03 mM MgCl2, 23 mM NaHCO3, 14 mM D-glucose, pH 7.3), then resuspended and adjusted to a density of 1 × 10^8 cells/mL in assay buffer. The radiolabeled permeant in the presence or absence of different concentrations of potential inhibitors reconstituted in 100 μL assay buffer was deposited on top of 250 μL oil mix in microcentrifuge tubes; 1 × 10^7 parasites in 100 μL assay buffer were added to the tube and incubated for a pre-determined interval. The reaction was stopped by the addition of 1 mL of a high concentration of ice-cold unlabeled substrate in assay buffer (‘stop solution’) and centrifugation, or by immediate centrifugation at […] as appropriate. The microcentrifuge tubes were flash-frozen, and the bottom of each tube containing the cell pellet was cut off and transferred to a scintillation vial. Cell pellets were lysed in 2% SDS, after which scintillation fluid (Scintlogic U, Lablogic) was added, followed by overnight incubation in the dark. Scintillation was measured in a 300SL (Hidex) scintillation counter (Hidex). All the assays were conducted in triplicate and analysis was carried out using Microsoft Excel and GraphPad Prism. All kinetic parameters were obtained on at least 3 separate occasions.
(§3) The dose-dependent uptake assay allowed for the affinity of nucleoside analogs to different nucleoside transporters to be determined by measuring the extent to which the analogs compete with and inhibit the uptake of radiolabel adenosine. This allowed for the determination of biochemical parameters such as Km and Vmax through the application of the Michaelis–Menten equation V0 = Vmax([substrate]/([substrate] + Km)). The 50% Inhibitory Concentration (IC50) of the purines and pyrimidines and their analogs was determined from non-linear regression to sigmoid curves with variable slope (Prism 8), and the IC50 of the inhibitor and the Km of the labeled permeant were then used to calculate the inhibition constant (Ki) of the analogs through the Cheng–Prusoff equation: Ki = IC50/(1 + (L/Km)), where L denotes the radiolabel concentration. The calculated Ki was in turn used to determine the Gibbs free energy (ΔG^0) of the inhibitor–transporter interaction using the equation: ΔG^0 = -RTln(Ki), where R represents the gas constant and T symbolizes the absolute temperature in Kelvin [104].

[13] = target: TcoAT1; assay type: cell-based, Trypanosoma congolense; details: for Ki: 0.05 µM [3H]-adenosine, 10 s, IC50 converted to Ki, read-out: Ki on the transport of [3H]-adenosine
Source text: The information for the T. congolense adenosine transporter (TcoAT1) and four putative T. vivax nucleoside transporters was obtained in the TritrypDB (tritrypdb.org/tritrypdb) genome database. Primers were designed to flank each gene upstream of the 5′ end (forward) and downstream of the 3′ end (reverse) as described (primer sequences in Supplementary Table S2). Following amplification from the genomic DNA of T. congolense or T. vivax, DNA for each extracted gene was ligated into the pNUS-HcN expression vector doubly digested with NdeI using the NEBuilder kit according to the manufacturer’s instructions (New England Biolabs). Construct was transformed into competent E. coli cells, and ligation was confirmed by restriction enzyme digestion of isolated plasmid DNA followed by Sanger sequencing (Source BioScience, Nottingham, UK). Confirmed plasmids were then transfected into L. mexicana cell line in which both NT1 and NT2 were doubly knocked out (SUPKO) and derived from L. mexicana Cas9 [64] as described. Clones grown in medium containing 50 μg/mL neomycin (G418) were collected for further confirmation by PCR with genomic DNA using a forward primer of the transporter gene and a reverse primer of the plasmid.
as §2, §3

[14] = system: T. vivax; experiment: T. vivax EC50 (from Mabille et al.); assay type: cell-based, Trypanosoma vivax; details: from Table 8 data
[15] = system: T. congolense IL3000; parameters: method as in Hulpia et al. [38]; details: values marked *; ref Hulpia et al. [38]; cited from earlier work
[16] = system: T. congolense 6C3; parameters: method as in Hulpia et al. [38]; details: values marked *; ref Hulpia et al. [38]; cited from earlier work
[17] = resazurin, 96 well plates, read-out: HEK EC50

| SMILES | EC50 [1] [µM] | T. congolense 6C3 RF [1] | EC50 [2] [µM] | EC50 [3] [µM] | SUPKO+TcoAT1 RF (SUPKO) [4] | EC50 [4] [µM] | SUPKO+TvxNT3 RF (SUPKO) [5] | EC50 [5] [µM] | SUPKO RF (Cas9) [6] | EC50 [6] [µM] | EC50 [7] [µM] | EC50 [8] [µM] | EC50 [9] [µM] | EC50 [10] [µM] | EC50 [11, 17] [µM] | SI T. congolense [11] | SI T. equiperdum [11] | SI T. evansi [11] | Ki [12] [µM] | ΔG0, Gibbs free energy of interaction [12] [kcal/mol] | other results |
| --- | --- | --- | --- | --- | --- | --- | --- | --- | --- | --- | --- | --- | --- | --- | --- | --- | --- | --- | --- | --- | --- |
| Nc1ncnc2c1c(Cl)cn2[C@@H]1O[C@H](CO)[C@@H](O)[C@H]1O [FH3169] | 0.75 ± 0.14 | 0.87 | 0.053 ± 0.007 | 0.12 ± 0.018 | 1.64 | 9.41 ± 0.56 | 0.97 | 15.9 ± 2.5 | 67.7 | 15.4 ± 2.7 | 0.23 ± 0.005 | 0.62 ± 0.06 | 0.86 ± 0.12 | 1.84 ± 0.33 | 4.55 ± 0.19 | 5.3 | 37 | 7.4 | – | – | – |
| Nc1ncnc2c1c(I)cn2[C@@H]1O[C@H](CO)C[C@H]1O [FH8496] | 0.003 ± 0.0002 | 0.56 | 0.056 ± 0.001 | 0.0015 ± 0.0005 | >2.2 | 23.9 ± 5.6 | >1.2 | 40 ± 9.2 | 1.01 | 52.6 | 51.8 ± 10.3 | 0.0037 ± 0.0012 | 0.0054 ± 0.001 | 0.024 ± 0.002 | – | 902 | 3260 | 1340 | 46.2 ± 1.7 | -5.9 | Ki [13]: 135 ± 11 µM; EC50 [11]: 4.91 ± 0.03 µM |
| C#Cc1cn([C@@H]2O[C@H](CO)C[C@H]2O)c2ncnc(N)c12 [FH8505] | 0.008 ± 0.002 | 0.46 ^a | 0.16 ± 0.01 | 0.0026 ± 0.0008 | >1.1 | 89.9 ± 12.5 | >1.25 | 80 ± 7.7 | >1.08 | > 100 | 92.7 ± 4.3 | 0.0078 ± 0.002 | 0.017 ± 0.002 | 0.031 ± 0.004 | – | 68 | 446 | 151 | – | – | fold higher EC50 against T. vivax compared to T. congolense [14]: 10–165 fold; EC50 [11]: 1.17 ± 0.06 µM |
| Nc1ncnc2c1c(F)cn2[C@@H]1O[C@H](CO)C[C@H]1O [FH8517] | 0.0031 ± 0.0003 | 0.60 | 0.5 ± 0.01 | 0.00052 ± 0.00011 | 1.64 | 6.1 ± 0.7 | 1.06 | 9.42 ± 1.41 | 3.22 | 9.96 ± 2.04 | 3.09 ± 0.04 | 0.004 ± 0.0006 | 0.0052 ± 0.0003 | 0.013 ± 0.002 | – | 330 | 3310 | 431 | 98.1 ± 2.3 | -5.47 | Ki [13]: 229 ± 15 µM; ΔG0 ([13]; Gibbs free energy of binding, from Km or Ki): -4.97 kcal/mol; EC50 [11]: 1.71 ± 0.11 µM |
| CC(C)Oc1ncnc2c1c(Cl)cn2[C@@H]1O[C@H](CO)[C@@H](O)[C@H]1O [FH9531] | – | 0.80 | 0.12 ± 0.01 | – | – | > 100 | – | > 100 | – | > 100 | > 100 | – | – | – | – | – | – | – | – | – | EC50 [15]: 4.04 ± 0.36 µM; EC50 [16]: 3.23 ± 0.36 µM |
| C=Cc1cn([C@@H]2O[C@H](CO)C[C@H]2O)c2ncnc(N)c12 [FH10659] | 0.04 ± 0.003 | 0.70 | 1.57 ± 0.43 | 0.011 ± 0.001 | – | > 100 | – | > 100 | – | > 100 | > 100 | 0.038 ± 0.0015 | 0.056 ± 0.004 | – | – | – | – | – | 28.5 ± 8.1 | -6.19 | fold higher EC50 against T. vivax compared to T. congolense [14]: 10–165 fold; Ki [13]: 59.3 ± 4.3 µM |
| Nc1ncnc2c1ccn2[C@H]1C[C@H](O)[C@@H](CO)O1 [FH10677] | 10.9 ± 2.3 | 0.25 | > 64 | 17.4 ± 2.3 | – | – | – | – | – | – | – | > 100 | 43.3 ± 14.5 | 38 ± 2.3 | > 200 | >4.6 | >12 | – | – | – | – |
| Nc1ncnc2c1c(Br)cn2[C@H]1C[C@H](O)[C@@H](CO)O1 [FH10679] | 0.31 ± 0.07 | 0.60 | 4.3 ± 0.9 | 0.067 ± 0.013 | – | – | – | – | – | – | – | 1.74 ± 0.53 | 0.51 ± 0.09 | 1.04 ± 0.19 | > 200 | >390 | >3000 | >115 | – | – | – |
| Nc1ncnc2c1c(Br)cn2[C@@H]1O[C@H](CO)[C@@H](O)[C@H]1O [TH1003] | 0.52 ± 0.031 | 0.66 | 0.74 ± 0.04 | 0.085 ± 0.026 | >1.4 | 71.1 ± 5 | – | > 100 | >41.2 | > 100 | 2.43 ± 0.14 | 0.48 ± 0.06 | 0.79 ± 0.14 | 1.4 ± 0.09 | 2.37 ± 0.12 | 3.0 | 28 | 4.9 | – | – | – |
